Results as given in patent publication US12110283B2, “Carbonic anhydrase targeting agents and methods of using same” (VisEn Medical, Inc., priority 2011, dated 2024).

Tests used:
CA II = CA II (Homo sapiens, UniProt P00918); assay: Ki by stopped flow CO2 hydration assay, CA II; assay type: biochemical; settings: rate of CO2 hydration, stopped flow method
Experimental: (§1) In this experiment, Ki values were determined by measuring the rate of CO2 hydration of the CA spectrophotometrically by a stopped flow method in the presence of varying concentrations of the CA agents.

CA IX [1] = target: T1, CA IX (Homo sapiens, UniProt Q16790); assay: Carbonic anhydrase dependent binding of CA agents to HeLa cells (fluorescence microscopy, flow cytometry); assay type: cell-based; settings: for binding to hypoxic HeLa cells, flow cytometry (FIG. 3) / binding to hypoxic and normoxic HeLa cells, fluorescence microscopy (FIG. 2): HeLa cells 24 h in air or 1% O2, agents 1 μM, 30 min; for binding to hypoxic HeLa cells after excess acetazolamide, fluorescence microscopy (FIG. 2) / signal on hypoxic HeLa cells with acetazolamide, flow cytometry (FIG. 3): acetazolamide 100 μM for 2 hour before the agent
T1 construct: confirming upregulation and expression of CA IX in these cells; endogenous in cells; host or cells: HeLa cells, hypoxic (1% O2) or normoxic
Experimental: Cell binding assays using HeLa cells cultured under […] were performed. Hela cells (28,000 cells/cm^2) were cultured in 6 well culture plates for 24 h under normoxic (air) or hypoxic (1% O2) conditions. Incubation with a fluorescent anti CA IX Ab (R&D systems) was performed in one well as a positive control followed by incubation for 1 h at 37° C. Carbonic anhydrase agents A5 and A3 (1 μM) or nonbinding control agent D3 were added to individual wells followed by incubation for 30 min. Cells were rinsed three times with PBS then scraped with 2 mL, transferred to 5 mL tubes and then spun for 10 min at 1000 rpm to discard the PBS. The cells were then re-suspend the cells in 400 μL PBS and analyzed by fluorescence microscopy and flow cytometry. For fluorescence microscopy, nuclei were co-stained with DAPI. For the competition study, cells were incubated with acetazolamide (Az) (100 μM) for 2 hour before incubation with agents.

CA IX [2] = target: T1, CA IX; assay: Ki by stopped flow CO2 hydration assay, CA IX; assay type: biochemical; settings: for Ki: rate of CO2 hydration, stopped flow method
Experimental: as §1

CA XII = CA XII (Homo sapiens, UniProt O43570); assay: Ki by stopped flow CO2 hydration assay, CA XII; assay type: biochemical; settings: rate of CO2 hydration, stopped flow method
CA XII, sequence (O43570 25-354, species assumed): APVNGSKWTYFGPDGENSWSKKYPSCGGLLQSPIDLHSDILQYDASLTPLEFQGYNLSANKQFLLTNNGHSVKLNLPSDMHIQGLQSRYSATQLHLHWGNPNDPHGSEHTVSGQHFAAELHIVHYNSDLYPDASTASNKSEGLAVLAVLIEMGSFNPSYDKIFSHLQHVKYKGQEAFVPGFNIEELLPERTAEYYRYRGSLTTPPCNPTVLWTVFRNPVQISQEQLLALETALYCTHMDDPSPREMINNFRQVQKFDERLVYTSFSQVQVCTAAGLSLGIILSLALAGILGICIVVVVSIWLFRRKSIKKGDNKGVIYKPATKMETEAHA
Experimental: as §1

CA XIV = CA XIV (Homo sapiens, UniProt Q9ULX7); assay: Ki by stopped flow CO2 hydration assay, CA XIV; assay type: biochemical; settings: rate of CO2 hydration, stopped flow method
CA XIV, sequence (Q9ULX7 16-337, species assumed): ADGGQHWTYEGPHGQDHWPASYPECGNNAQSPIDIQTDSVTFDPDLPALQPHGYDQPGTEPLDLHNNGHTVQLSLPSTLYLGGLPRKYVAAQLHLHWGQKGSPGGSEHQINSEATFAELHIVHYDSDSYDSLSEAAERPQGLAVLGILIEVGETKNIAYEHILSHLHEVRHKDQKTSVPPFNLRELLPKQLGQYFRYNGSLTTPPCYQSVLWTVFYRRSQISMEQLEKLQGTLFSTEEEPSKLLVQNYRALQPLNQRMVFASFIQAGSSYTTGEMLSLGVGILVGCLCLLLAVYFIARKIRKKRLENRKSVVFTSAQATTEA
Experimental: as §1

HeLa tumors = assay: Imaging of tumors in vivo using CA agents (planar reflectance and FMT); settings: NU/NU mice, bilateral HeLa tumors, 2 nmoles i.v., 24 hrs post-injection
Experimental: In this experiment, NU/NU mice 6-8 weeks old (Charles River Laboratory, Wilmington, MA) were injected subcutaneously (s.c.) with about 2×10^6 HeLa cells bilaterally in each mammary fat pad. When tumors reached an approximate size of 3×3 mm, mice were injected intravenously (i.v.) with 2 nmoles of carbonic anhydrase agent C5 or nonbinding control agent D3 (5 mice/probe+2 mice/no probe as control) in 100 μL volume via tail vein. Imaging was conducted at 24 hrs post-injection using a Fluorescence Molecular Tomography system (VisEn Medical, Bedford, MA) that is commercially available.

[3] = Biodistribution of i.v. administered compound in HeLa tumor bearing mice; assay type: in vivo; settings: 2 nmoles i.v., 24 hr, excised tissues, reflectance mode
Experimental: Female NU/NU mice 6-8 weeks old (Charles River Laboratory, Wilmington, MA) were injected subcutaneously (s.c.) with HeLa cells (5×10^6) in the first mammary fat pads. Once tumors reached the desired volume (measured with calipers using the formula volume mm^3=(length×width^2)/2), mice were injected i.v. with compound C5 (2 nmoles) or nonbinding control D3. Mice were sacrificed by carbon dioxide asphyxiation 24 hr later and certain tissues removed, rinsed with saline, blotted dry, and the imaged on a VisEn FMT 2500 using the reflectance mode. Regions of interest (ROIs) were drawn around each organ using the FMT Software and the mean fluorescence (reported as counts/energy) determined for each organ and normalized to the mean fluorescence in tumors taken to be 100%.

SMILES	Ki (CA II) [nM]	binding to hypoxic HeLa cells, flow cytometry (FIG. 3) (CA IX [1])	binding to hypoxic and normoxic HeLa cells, fluorescence microscopy (FIG. 2) (CA IX [1])	binding to hypoxic HeLa cells after excess acetazolamide, fluorescence microscopy (FIG. 2) (CA IX [1])	signal on hypoxic HeLa cells with acetazolamide, flow cytometry (FIG. 3) (CA IX [1])	Ki (CA IX [2]) [nM]	Ki (CA XII) [nM]	Ki (CA XIV) [nM]	specific binding to carbonic anhydrases (CA IX [2]; summary in words of Table 5: CA II, CA IX, CA XII, CA XIV)	tumor signal by planar reflectance and tomographic imaging (HeLa tumors)	tissue fluorescence (biodistribution), normalized to tumors (FIG. 4) [3]
CC1(C)C(/C=C/C(=C/C=C2/N(CCCS(=O)(=O)O)c3ccc4c(S(=O)(=O)O)cc(S(=O)(=O)O)cc4c3C2(C)C)c2ccc(C(=O)NCCCCCC(=O)NCc3ccc(C(=O)Nc4nnc(S(N)(=O)=O)s4)cc3)cn2)=[N+](CCCS(=O)(=O)[O-])c2ccc3c(S(=O)(=O)O)cc(S(=O)(=O)O)cc3c21 [Compound A3, 3-(2-((1E,3Z,5E)-5-(1,1-dimethyl-6,8-disulfo-3-(3-sulfopropyl)-1H-benzo[e]indol-2(3H)-ylidene)-3-(5-((6-oxo-6-((4-((5-sulfamoyl-1,3,4-thiadiazol-2-yl)carbamoyl)benzyl)amino)hexyl)carbamoyl)pyridin-2-yl)penta-1,3-dien-1-yl)-1,1-dimethyl-6,8-disulfo-1H-benzo[e]indol-3-ium-3-yl)propane-1-sulfonate]	9.8	increased binding	bound to CA IX receptors on the surface of the hypoxic cells but not normoxic cells	binding can be blocked	blocking of the signal	7.6	36	57	–	–	–
CN(CCCC(=O)NCc1ccc(C(=O)Nc2nnc(S(N)(=O)=O)s2)cc1)S(=O)(=O)c1cccc2c3c(ccc12)[N+](CCCS(=O)(=O)[O-])=C(/C=C/C=C/C=C1/N(CCCS(=O)(=O)O)c2ccc4c(S(=O)(=O)O)cc(S(=O)(=O)O)cc4c2C1(C)C)C3(C)C [Compound A1, 3-(2-((1E,3E,5E)-5-(1,1-dimethyl-6,8-disulfo-3-(3-sulfopropyl)-1H-benzo[e]indol-2(3H)-ylidene)penta-1,3-dien-1-yl)-1,1-dimethyl-6-(N-methyl-N-(4-oxo-4-((4-((5-sulfamoyl-1,3,4-thiadiazol-2-yl)carbamoyl)benzyl)amino)butyl)sulfamoyl)-1H-benzo[e]indol-3-ium-3-yl)propane-1-sulfonate]	288	–	–	–	–	8.4	57	77	–	–	–
CC1(C)C(/C=C/C(=C/C=C2/N(CCCS(=O)(=O)O)c3ccc4c(S(=O)(=O)O)cc(S(=O)(=O)O)cc4c3C2(C)C)c2ccc(C(=O)NCc3ccc(C(=O)Nc4nnc(S(N)(=O)=O)s4)cc3)cn2)=[N+](CCCS(=O)(=O)[O-])c2ccc3c(S(=O)(=O)O)cc(S(=O)(=O)O)cc3c21 [Compound A5, 3-(2-((1E,3Z,5E)-5-(1,1-dimethyl-6,8-disulfo-3-(3-sulfopropyl)-1H-benzo[e]indol-2(3H)-ylidene)-3-(5-((4-((5-sulfamoyl-1,3,4-thiadiazol-2-yl)carbamoyl)benzyl)carbamoyl)pyridin-2-yl)penta-1,3-dien-1-yl)-1,1-dimethyl-6,8-disulfo-1H-benzo[e]indol-3-ium-3-yl)propane-1-sulfonate]	271	increased binding	bound to CA IX receptors on the surface of the hypoxic cells but not normoxic cells	binding can be blocked	blocking of the signal	7.9	43	45	–	–	–
CCN1/C(=C/C=C(/C=C/C2=[N+](CC)c3ccc4c(S(=O)(=O)[O-])cc(S(=O)(=O)O)cc4c3C2(C)C)c2ccc(C(=O)NCc3ccc(C(=O)Nc4nnc(S(N)(=O)=O)s4)cc3)cn2)C(C)(C)c2c1ccc1c(S(=O)(=O)O)cc(S(=O)(=O)O)cc21 [Compound A6, 3-ethyl-2-((1E,3Z,5E)-5-(3-ethyl-1,1-dimethyl-6,8-disulfo-1H-benzo[e]indol-2(3H)-ylidene)-3-(5-((4-((5-sulfamoyl-1,3,4-thiadiazol-2-yl)carbamoyl)benzyl)carbamoyl)pyridin-2-yl)penta-1,3-dien-1-yl)-1,1-dimethyl-8-sulfo-1H-benzo[e]indol-3-ium-6-sulfonate]	27.1	–	–	–	–	7.7	40	84	–	–	–
CC1(C)C(/C=C/C(=C/C=C2/N(CCCS(=O)(=O)O)c3ccc4c(S(=O)(=O)O)cc(S(=O)(=O)O)cc4c3C2(C)C)c2ccc(C(=O)NCCCCCC(=O)NCc3ccccc3)cn2)=[N+](CCCS(=O)(=O)[O-])c2ccc3c(S(=O)(=O)O)cc(S(=O)(=O)O)cc3c21 [Compound D3, 3-(2-((1E,3Z,5E)-3-(5-((6-(benzylamino)-6-oxohexyl)carbamoyl)pyridin-2-yl)-5-(1,1-dimethyl-6,8-disulfo-3-(3-sulfopropyl)-1H-benzo[e]indol-2(3H)-ylidene)penta-1,3-dien-1-yl)-1,1-dimethyl-6,8-disulfo-1H-benzo[e]indol-3-ium-3-yl)propane-1-sulfonate]	> 100000	not	doesn't bind to either normoxic or hypoxic cells	–	–	> 100000	> 100000	> 100000	no specific binding is detected	little or no tumor signal	fluorescence accumulation only in the kidneys
CCN1/C(=C/C=C(/C=C/C2=[N+](CC)c3ccc4c(S(=O)(=O)[O-])cc(S(=O)(=O)O)cc4c3C2(C)C)c2ccc(C(=O)NCc3ccc(S(N)(=O)=O)cc3)cn2)C(C)(C)c2c1ccc1c(S(=O)(=O)O)cc(S(=O)(=O)O)cc21 [Compound B6, 3-ethyl-2-((1E,3Z,5E)-5-(3-ethyl-1,1-dimethyl-6,8-disulfo-1H-benzo[e]indol-2(3H)-ylidene)-3-(5-((4-sulfamoylbenzyl)carbamoyl)pyridin-2-yl)penta-1,3-dien-1-yl)-1,1-dimethyl-8-sulfo-1H-benzo[e]indol-3-ium-6-sulfonate]	502	–	–	–	–	9.9	40	69	–	–	–
